Experimental data reported in patent publication US20250026742A1 (SUZHOU ARK BIOPHARMACEUTICAL CO., LTD., priority 2021, published 2025).
Structures can show the parent of a compound that is named as a salt.

Target: ATR kinase (Homo sapiens (Human), UniProt Q13535)
Assay: ATR enzyme activity inhibition assay (HTRF)
Type: biochemical
Details: p53 substrate, full-length ATR enzyme
Method: The inhibitory ability to ATR kinase for selected compounds was tested by the HTRF (Homogeneous Time-Resolved Fluorescence). In the reaction system, After the substrate p53 is phosphorylated by ATR, the anti-phospho-p53-Eu that serves as an energy donor and specifically binds to the phosphorylation site on p53 is added. Then, the anti-GST-d2 as an energy acceptor that specifically binds to the GST tag carried on p53 is added. […] The IC50 of the sample to be tested can be obtained through graphing and calculation.
Prepare various buffer systems required for the experiment: • 1. […] Prepare detection buffer: Dilute each of the anti-phospho-p53-Eu cryptate (Cisbio, Cat #61P08KA) and anti-GST-d2 (Cisbio, Cat #61GSTDLB) to 1 unit using HTRF detection buffer (Cisbio, Cat #62SDBRDF).
Powdered compounds were dissolved in DMSO to from a stock solution at a concentration of 10 mM. The solution of compounds to be tested at a concentration of […] was performed a 3-fold dilution for 10 concentrations with DMSO. […] 5 μL of ATR was added to each well accordingly. Each well is incubated at 25° C. for 10 min, added with 5 μL of reaction substrate, incubated at 25° C. for 90 min and added with 10 μL of detection solution. […] The inhibition curves of the compounds were made by the four-parameter […] regression equation of XLfit software, and the inhibition rates of the compounds were calculated.

ATR kinase, sequence (Q13535 whole entry): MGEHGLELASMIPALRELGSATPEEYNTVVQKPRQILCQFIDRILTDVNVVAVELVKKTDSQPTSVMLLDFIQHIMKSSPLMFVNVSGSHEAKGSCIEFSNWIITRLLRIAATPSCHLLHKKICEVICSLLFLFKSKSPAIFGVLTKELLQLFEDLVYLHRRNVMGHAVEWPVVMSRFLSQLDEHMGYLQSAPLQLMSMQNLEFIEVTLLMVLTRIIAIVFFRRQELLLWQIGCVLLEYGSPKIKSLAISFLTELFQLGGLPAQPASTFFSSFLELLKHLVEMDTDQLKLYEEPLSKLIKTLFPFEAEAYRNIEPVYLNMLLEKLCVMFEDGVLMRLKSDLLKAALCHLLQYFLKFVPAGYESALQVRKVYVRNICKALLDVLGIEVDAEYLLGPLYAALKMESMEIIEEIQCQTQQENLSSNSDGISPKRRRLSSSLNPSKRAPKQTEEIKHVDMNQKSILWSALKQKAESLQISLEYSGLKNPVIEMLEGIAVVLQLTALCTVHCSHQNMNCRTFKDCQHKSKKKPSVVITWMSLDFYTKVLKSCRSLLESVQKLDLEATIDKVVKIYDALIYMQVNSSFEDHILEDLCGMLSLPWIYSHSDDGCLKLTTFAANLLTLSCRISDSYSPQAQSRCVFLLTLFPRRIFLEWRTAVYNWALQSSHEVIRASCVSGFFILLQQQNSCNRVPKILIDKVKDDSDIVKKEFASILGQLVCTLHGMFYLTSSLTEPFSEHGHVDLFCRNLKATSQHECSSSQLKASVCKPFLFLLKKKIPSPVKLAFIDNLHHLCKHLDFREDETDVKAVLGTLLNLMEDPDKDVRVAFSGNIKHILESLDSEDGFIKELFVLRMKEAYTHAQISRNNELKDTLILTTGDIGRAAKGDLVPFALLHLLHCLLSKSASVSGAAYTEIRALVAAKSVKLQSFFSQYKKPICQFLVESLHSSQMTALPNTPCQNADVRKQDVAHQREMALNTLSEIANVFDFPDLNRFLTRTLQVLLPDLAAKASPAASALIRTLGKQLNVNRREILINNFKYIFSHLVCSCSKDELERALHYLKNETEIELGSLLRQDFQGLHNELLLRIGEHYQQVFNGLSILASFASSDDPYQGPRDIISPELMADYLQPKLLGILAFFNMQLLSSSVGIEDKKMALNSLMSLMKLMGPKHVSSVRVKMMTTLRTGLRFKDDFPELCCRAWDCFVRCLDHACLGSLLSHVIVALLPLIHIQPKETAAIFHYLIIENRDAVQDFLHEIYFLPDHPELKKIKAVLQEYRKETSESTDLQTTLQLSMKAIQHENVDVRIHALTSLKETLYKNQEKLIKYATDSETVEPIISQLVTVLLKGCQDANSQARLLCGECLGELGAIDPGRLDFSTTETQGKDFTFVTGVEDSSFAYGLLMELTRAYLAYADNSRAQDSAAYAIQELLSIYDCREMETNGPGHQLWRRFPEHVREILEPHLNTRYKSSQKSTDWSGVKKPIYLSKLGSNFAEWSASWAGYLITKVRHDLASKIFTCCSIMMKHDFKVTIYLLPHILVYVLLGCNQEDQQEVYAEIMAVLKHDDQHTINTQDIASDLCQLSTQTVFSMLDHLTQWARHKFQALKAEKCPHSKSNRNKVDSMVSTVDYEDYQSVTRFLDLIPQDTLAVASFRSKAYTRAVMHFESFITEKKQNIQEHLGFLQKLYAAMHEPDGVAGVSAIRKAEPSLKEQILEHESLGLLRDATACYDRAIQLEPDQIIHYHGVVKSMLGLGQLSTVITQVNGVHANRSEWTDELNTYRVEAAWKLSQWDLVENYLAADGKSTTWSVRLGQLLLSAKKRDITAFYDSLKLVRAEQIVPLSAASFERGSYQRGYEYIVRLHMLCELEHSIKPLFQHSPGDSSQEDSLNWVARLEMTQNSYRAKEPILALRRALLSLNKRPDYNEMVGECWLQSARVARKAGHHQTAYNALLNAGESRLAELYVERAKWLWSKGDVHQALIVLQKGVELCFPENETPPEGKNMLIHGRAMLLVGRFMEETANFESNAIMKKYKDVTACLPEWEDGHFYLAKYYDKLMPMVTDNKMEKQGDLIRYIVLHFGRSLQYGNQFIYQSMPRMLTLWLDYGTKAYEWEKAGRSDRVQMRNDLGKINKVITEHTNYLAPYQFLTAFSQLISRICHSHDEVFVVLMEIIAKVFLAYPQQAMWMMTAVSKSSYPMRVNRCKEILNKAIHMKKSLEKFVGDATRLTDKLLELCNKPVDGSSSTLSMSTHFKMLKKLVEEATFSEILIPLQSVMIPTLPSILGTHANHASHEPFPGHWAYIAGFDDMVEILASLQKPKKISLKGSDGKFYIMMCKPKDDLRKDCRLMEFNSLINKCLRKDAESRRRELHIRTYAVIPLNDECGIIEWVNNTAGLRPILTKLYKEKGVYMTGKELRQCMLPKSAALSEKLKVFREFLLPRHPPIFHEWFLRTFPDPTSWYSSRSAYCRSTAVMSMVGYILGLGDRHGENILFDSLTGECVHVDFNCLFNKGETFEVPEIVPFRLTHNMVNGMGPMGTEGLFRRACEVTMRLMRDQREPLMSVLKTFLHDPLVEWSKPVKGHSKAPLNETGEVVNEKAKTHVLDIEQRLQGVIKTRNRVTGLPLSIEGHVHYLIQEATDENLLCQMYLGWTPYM
ATR kinase, sequence (Q8WXE1 whole entry partner): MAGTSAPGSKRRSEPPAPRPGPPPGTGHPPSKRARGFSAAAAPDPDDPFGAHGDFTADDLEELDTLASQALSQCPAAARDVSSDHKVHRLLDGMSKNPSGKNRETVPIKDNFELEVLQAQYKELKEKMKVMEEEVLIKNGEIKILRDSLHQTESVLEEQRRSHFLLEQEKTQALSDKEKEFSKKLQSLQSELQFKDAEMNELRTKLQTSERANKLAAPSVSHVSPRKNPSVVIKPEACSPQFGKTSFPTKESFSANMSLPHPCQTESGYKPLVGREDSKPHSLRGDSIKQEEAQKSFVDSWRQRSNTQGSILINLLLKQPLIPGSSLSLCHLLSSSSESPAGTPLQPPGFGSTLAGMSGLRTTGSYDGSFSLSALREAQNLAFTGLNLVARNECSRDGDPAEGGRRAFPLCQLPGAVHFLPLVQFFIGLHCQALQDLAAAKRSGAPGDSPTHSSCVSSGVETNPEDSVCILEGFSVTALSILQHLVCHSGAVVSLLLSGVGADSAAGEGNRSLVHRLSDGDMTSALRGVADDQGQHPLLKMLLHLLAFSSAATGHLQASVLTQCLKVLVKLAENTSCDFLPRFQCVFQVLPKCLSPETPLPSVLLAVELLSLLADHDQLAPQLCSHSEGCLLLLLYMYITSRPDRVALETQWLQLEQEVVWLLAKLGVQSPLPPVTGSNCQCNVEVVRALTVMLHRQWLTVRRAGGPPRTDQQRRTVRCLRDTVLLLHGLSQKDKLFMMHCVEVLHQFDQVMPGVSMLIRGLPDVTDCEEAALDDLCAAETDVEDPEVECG

IC50 [nM] | Compound
3.35 | CC(C)S(=O)(=O)c1ccc(-c2cnc(N)c(-c3cc(-c4ccc(CNC(=N)N)cc4C(F)(F)F)no3)n2)cc1 [Example 30, 1-(4-(5-(3-amino-6-(4-(isopropylsulfonyl)phenyl)pyrazin-2-yl)isoxazol-3-yl)-3-(trifluoromethyl)benzyl)guanidine dihydrochloride]
0.97 | CC(C)S(=O)(=O)c1ccc(-c2cnc(N)c(-c3cc(-c4ccc(CNC(=N)N)cc4)no3)n2)cc1 [Example 1, 1-(4-(5-(3-amino-6-(4-(isopropylsulfonyl)phenyl)pyrazin-2-yl)isoxazol-3-yl)benzyl)guanidine dihydrochloride]
1.21 | CC(C)S(=N)(=O)c1ccc(-c2cnc(N)c(-c3cc(-c4ccc5[nH]c(=O)[nH]c5c4)no3)n2)cc1 (stereo not drawn) [Example 22, 5-(5-(3-amino-6-(4-(propan-2-ylsulfonimido)phenyl)pyrazin-2-yl)isoxazol-3-yl)-1,3-dihydro-benzimidazol-2-one dihydrochloride]
1.29 | CC(=N)NCc1ccc(-c2cc(-c3nc(-c4ccc(S(=O)(=O)C(C)C)cc4)cnc3N)on2)cc1 [Example 28, N-(4-(5-(3-amino-6-(4-(isopropylsulfonyl)phenyl)pyrazin-2-yl)isoxazol-3-yl)benzyl)acetamidine dihydrochloride]
1.08 | CC(C)S(=O)(=O)c1ccc(-c2cnc(N)c(-c3cc(-c4ccc(CNC(=N)N)c(F)c4)no3)n2)cc1 [Example 24, 1-(4-(5-(3-amino-6-(4-(isopropylsulfonyl)phenyl)pyrazin-2-yl)isoxazol-3-yl)-2-fluorobenzyl)guanidine dihydrochloride]
3.64 | CC(C)S(=O)(=O)c1ccc(-c2cnc(N)c(-c3cc(-c4ccc(CNS(N)(=O)=O)cc4)no3)n2)cc1 [Example 8, 3-(3-(4-((aminosulfonyl)aminomethylene)phenyl)isoxazol-5-yl)-5-(4-(isopropylsulfonyl)phenyl)pyrazin-2-amine]
1.98 | CN(C)C(=O)c1ccc(-c2cnc(N)c(-c3cc(-c4ccc(CNC(=N)N)cc4)no3)n2)cc1 [Example 25, 4-(5-amino-6-(3-(4-(guanidinomethyl)phenyl)isoxazol-5-yl)pyrazin-2-yl)-N,N-dimethylbenzamide dihydrochloride]
2.9 | CCNC(=O)NCc1ccc(-c2cc(-c3nc(-c4ccc(S(=O)(=O)C(C)C)cc4)cnc3N)on2)cc1 [Example 6, 1-(4-(5-(3-amino-6-(4-(isopropylsulfonyl)phenyl)pyrazin-2-yl)isoxazol-3-yl)benzyl)-3-ethylurea]
1.68 | CN=S(=O)(c1ccc(-c2cnc(N)c(-c3cc(-c4ccc(CNC(=N)N)cc4)no3)n2)cc1)C(C)C (stereo not drawn) [Example 13, 1-(4-(5-(3-amino-6-(4-(N-methylpropan-2-yl-sulfonimido)phenyl)pyrazin-2-yl)isoxazol-3-yl)benzyl)guanidine dihydrochloride]
0.77 | CNCc1ccc(-c2nnc(-c3nc(-c4ccc5c(c4)C(F)C(C)(C)S5(=O)=O)cnc3N)s2)cc1 (stereo not drawn) [Example 37, 5-(5-amino-6-(5-(4-((methylamino)methyl)phenyl)-1,3,4-thiadiazol-2-yl)pyrazin-2-yl)-3-fluoro-2,2-dimethyl-2,3-dihydrobenzo[b]thiophene 1,1-dioxide]
0.82 | CC(C)S(=O)(=O)c1ccc(-c2cnc(N)c(-c3cc(-c4c(F)cc(CNC(=N)N)cc4F)no3)n2)cc1 [Example 11, 1-(4-(5-(3-amino-6-(4-(isopropylsulfonyl)phenyl)pyrazin-2-yl)isoxazol-3-yl)-3,5-difluorobenzyl)guanidine dihydrochloride]
0.75 | N=C(N)NCc1ccc(-c2cc(-c3nc(-c4ccc5c(c4)CCS5(=O)=O)cnc3N)on2)cc1 [Example 27, 1-(4-(5-(3-amino)-6-(1,1-dioxo-2,3-dihydrobenzo[b]thiophen-5-yl)pyrazin-2-yl)isoxazol-3-yl)benzyl)guanidine dihydrochloride]
2.09 | CNCc1ccc(-c2cc(-c3nc(-c4ccc5c(c4)C(F)C(C)(C)S5(=O)=O)cnc3N)on2)cc1 (stereo not drawn) [Example 32, 5-(5-amino-6-(3-(4-((methylamino)methyl)phenyl)isoxazol-5-yl)pyrazin-2-yl)-3-fluoro-2,2-dimethyl-2,3-dihydrobenzo[b]thiophene 1,1-dioxide]
0.83 | CC(C)S(=O)(=O)c1ccc(-c2cnc(N)c(-c3cc(-c4ccc(CNC(=N)N)cc4F)no3)n2)cc1 [Example 4, 1-(4-(5-(3-amino-6-(4-isopropylsulfonyl)phenyl)pyrazin-2-yl)isoxazol-3-yl)-3-fluorobenzyl)guanidine dihydrochloride]
0.93 | CNC(=N)Nc1ccc(-c2cc(-c3nc(-c4ccc(S(=O)(=O)C(C)C)cc4)cnc3N)on2)cc1 [Example 17, 1-(4-(5-(3-amino-6-(4-(isopropylsulfonyl)phenyl)pyrazin-2-yl)isoxazol-3-yl)phenyl)-3-methylguanidine dihydrochloride]
2.79 | CNCc1ccc(-c2cc(-c3nc(-c4ccc(S(=N)(=O)C(C)C)cc4)cnc3N)on2)cc1 (stereo not drawn) [Example 2, (4-(5-amino-6-(3-(4-((methylamino)methyl)phenyl)isoxazol-5-yl)pyrazin-2-yl)phenyl)(imino)(isopropyl)-λ^6-sulfoxide]
4 | CC(C)S(=O)(=O)c1ccc(-c2cnc(N)c(-c3cc(-c4ccc5c(c4)CNC5=O)no3)n2)cc1 [Example 31]
2 | CC(C)S(=O)(=O)c1ccc(-c2cnc(N)c(-c3cc(-c4ccc(NC(N)=O)cc4)no3)n2)cc1 [Example 15, 1-(4-(5-(3-amino-6-(4-(isopropylsulfonyl)phenyl)pyrazin-2-yl)isoxazol-3-yl)phenyl)urea]
9.74 | CC(C)S(=O)(=O)c1ccc(-c2cnc(N)c(-c3cc(-c4ccc(NC(=N)N)cc4)no3)n2)cc1 [Example 16, 1-(4-(5-(3-amino-6-(4-(isopropylsulfonyl)phenyl)pyrazin-2-yl)isoxazol-3-yl)phenyl)guanidine]
1.04 | CNC(=O)NCc1ccc(-c2cc(-c3nc(-c4ccc(S(=O)(=O)C(C)C)cc4)cnc3N)on2)cc1 [Example 7, 1-(4-(5-(3-amino-6-(4-(isopropylsulfonyl)phenyl)pyrazin-2-yl)isoxazol-3-yl)benzyl)-3-methylurea]
0.57 | CN1CCC(NCc2ccc(-c3nnc(-c4nc(-c5ccc6c(c5)C(F)C(C)(C)S6(=O)=O)cnc4N)o3)cc2)CC1 (stereo not drawn) [Example 36]
1.26 | CNC(=N)Nc1ccc(-c2cc(-c3nc(-c4ccc(S(=O)(=O)C(C)C)cc4)cnc3N)on2)nc1 [Example 19, 1-(6-(5-(3-amino-6-(4-(isopropylsulfonyl)phenyl)pyrazin-2-yl)isoxazol-3-yl)pyridin-3-yl)-3-methylguanidine dihydrochloride]
0.41 | (R)-5-(5-amino-6-(3-(4-((methylamino)methyl)phenyl)isoxazol-5-yl)pyrazin-2-yl)-3-fluoro-2,2-dimethyl-2,3-dihydrobenzo[b]thiophene 1,1-dioxide or (S)-5-(5-amino-6-(3-(4-((methylamino)methyl)phenyl)isoxazol-5-yl)pyrazin-2-yl)-3-fluoro-2,2-dimethyl-2,3-dihydrobenzo[b]thiophene 1,1-dioxide [Example 35-1 or 35-2]
1.75 | CN(C)S(=O)(=O)c1ccc(-c2cnc(N)c(-c3cc(-c4ccc(CNC(=N)N)cc4)no3)n2)cc1 [Example 10, 4-(5-amino-6-(3-(4-(guanidinomethyl)phenyl)isoxazol-5-yl)pyrazin-2-yl)-N,N-dimethylbenzenesulfonamide dihydrochloride]
1.42 | CNC(=O)Nc1ccc(-c2cc(-c3nc(-c4ccc(S(=O)(=O)C(C)C)cc4)cnc3N)on2)cc1 [Example 14, 1-(4-(5-(3-amino-6-(4-(isopropylsulfonyl)phenyl)pyrazin-2-yl)isoxazol-3-yl)phenyl)-3-methylurea]
1.31 | CC(C)S(=O)(=O)c1ccc(-c2cnc(N)c(-c3cc(-c4ccc5[nH]c(=O)[nH]c5c4)no3)n2)cc1 [Example 21, 5-(5-(3-amino-6-(4-(isopropylsulfonyl)phenyl)pyrazin-2-yl)isoxazol-3-yl)-1,3-dihydro-2H-benzo[d]imidazol-2-one]
0.7 | N=C(N)NCc1ccc(-c2cc(-c3nc(-c4ccc(S(=O)(=O)C5CC5)cc4)cnc3N)on2)cc1 [Example 23, 1-(4-(5-(3-amino-6-(4-(cyclopropylsulfonyl)phenyl)pyrazin-2-yl)isoxazol-3-yl)benzyl)guanidine dihydrochloride]
0.92 | CNCc1ccc(-c2cc(-c3nc(-c4ccc5c(c4)C(F)C(C)(C)S5(=O)=O)cnc3N)no2)cc1 (stereo not drawn) [Example 34, 5-(5-amino-6-(5-(4-((methylamino)methyl)phenyl)isoxazol-3-yl)pyrazin-2-yl)-3-fluoro-2,2-dimethyl-2,3-dihydrobenzo[b]thiophene 1,1-dioxide]
1.16 | CCNC(=N)Nc1ccc(-c2cc(-c3nc(-c4ccc(S(=O)(=O)C(C)C)cc4)cnc3N)on2)cc1 [Example 18, 1-(4-(5-(3-amino-6-(4-(isopropylsulfonyl)phenyl)pyrazin-2-yl)isoxazol-3-yl)phenyl)-3-ethylguanidine dihydrochloride]

Compound | IC50 [nM]
CC(C)S(=O)(=O)c1ccc(-c2cnc(N)c(-c3cc(-c4ccc(C(=O)NC(=N)N)cc4)no3)n2)cc1 [Example 26, dihydrochloride] | 2.06
